Reference: patent publication US7541374B2, “Malononitrile compounds and use thereof” (Sumitomo Chemical Company, Limited, priority 2004, dated 2009)
Where two headings read alike, the source gives them in different places.

Assays:
Format in all cases: in vivo
Culex pipiens pallens = assay: Test Example 5: larvae in treated water, Culex pipiens pallens; details: 24 h, read-out: rate of dead pests
Experimental: The formulation obtained according to Formulation Example 5 using the compound of the present invention (1), (2), (3), (4), (5), (6), (7), (8), (9), (10), (11), (12), (13), (14), (15), (16), (17), (18), (19), (20), (21), (22), (23), (25), (27), (28), (29), […], (31), (32), (33), (34), (35), (36), (37), (38), (39), (41), (44), (45), (46), (47) and (48) respectively, was diluted with water so that the active ingredient concentration came to 500 ppm to prepare a pesticidal solution for test.
0.7 ml of above pesticidal solution for test was added to 100 ml of ion exchanged water (active ingredient concentration: 3.5 ppm). Twenty last-instar larvae of Culex pipiens pallens were set free in the solution. After one day, the number of surviving and dead Culex pipiens pallens was examined and the rate of dead pests was calculated.

Blattella germanica = assay: Test Example 4: treated filter paper with sucrose bait, Blattella germanica; details: 144 h, read-out: rate of dead pests
Experimental: (§1) The formulation obtained according to Formulation Example 5 using the compound of the present invention (2), (3), (4), (6), (7), (8), (9), (11), (12), (13), (15), (16), (18), (19), (20), (21), (22), (27), (28), (29), (30), (31), (32), (33), (34), (35), (36), (37), (38), (43) and (43) respectively, was diluted with water so that the active ingredient concentration came to 500 ppm to prepare a pesticidal solution for test.
(§2) On the bottom of a polyethylene cup having a diameter of 5.5 cm, a filter paper having the same diameter was laid, and 0.7 ml of the above pesticidal solution for test was added dropwise on the filter paper, followed by putting 30 mg of sucrose on it uniformly as a bait. Two male Blattella germanica imagoes were set free in the polyethylene cup and covered it with a lid. After 6 days, the number of surviving and dead Blattella germanica was examined and the rate of dead pests was calculated.

Musca domestica = assay: Test Example 3: treated filter paper with sucrose bait, Musca domestica; details: read-out: rate of dead pests
Experimental: as §1, with “(8),” for “(8), (9),”, “(16),” for “(16), (18),”, “(22),” for “(22), (27),”, “(34),” for “(34), (35),”, “(38)” for “(38), (43)”, “(39)” for “(43)”
as §2, with “Ten female Musca domestica” for “Two male Blattella germanica”, “24 hours,” for “6 days,”, “Musca domestica” for “Blattella germanica”

[1] = active ingredient concentration 3.5 ppm in water, twenty last-instar larvae of Culex pipiens pallens, after one day
[2] = 500 ppm, 0.7 ml on filter paper, two male Blattella germanica imagoes, after 6 days
[3] = 500 ppm, 0.7 ml on filter paper, ten female Musca domestica imagoes, after 24 hours

Row | SMILES | pest or weed control at 3.5 ppm (Culex pipiens pallens; [1]) [%] | pest or weed control at 500 ppm (Blattella germanica; [2]) [%] | pest or weed control at 500 ppm (Musca domestica; [3]) [%] | further results
1 | N#CC(C#N)(CCC(F)(F)F)Cn1cccn1 [compound of the present invention (1), (1H-pyrazole-1-yl methyl) (3,3,3-trifluoropropyl) malononitrile] | ≥ 95 | – | – | –
2 | CC(C)c1ccn(CC(C#N)(C#N)CCC(F)(F)F)n1 [compound of the present invention (2), [(3-i-propyl-1H-pyrazole-1-yl)methyl](3,3,3-trifluoropropyl) malononitrile] | ≥ 95 | 100 | ≥ 90 | –
3 | CC(C)(C)c1ccn(CC(C#N)(C#N)CCC(F)(F)F)n1 [compound of the present invention (3), [(3-t-butyl-1H-pyrazole-1-yl)methyl](3,3,3-trifluoropropyl) malononitrile] | ≥ 95 | 100 | ≥ 90 | –
4 | C=CCC(C#N)(C#N)Cn1ccc(C(C)(C)C)n1 [compound of the present invention (4), allyl [(3-t-butyl-1H-pyrazole-1-yl)methyl]malononitrile] | ≥ 95 | 100 | ≥ 90 | –
5 | CC1(C)CCc2cn(CC(C#N)(C#N)CCC(F)(F)F)nc21 [compound of the present invention (5), [(6,6-dimethyl-5,6-dihydro-cyclopenta[c]pyrazole-2(4H)-yl)methyl](3,3,3-trifluoropropyl) malononitrile] | ≥ 95 | – | – | –
6 | N#CC(C#N)(CCC(F)(F)F)Cn1ccc(C(F)(F)F)n1 [compound of the present invention (6), {[3-(trifluoromethyl)-1H-pyrazole-1-yl]methyl}(3,3,3-trifluoropropyl) malononitrile] | ≥ 95 | 100 | ≥ 90 | –
7 | C=CCC(C#N)(C#N)Cn1ccc(C(F)(F)F)n1 [compound of the present invention (7), allyl {[3-(trifluoromethyl)-1H-pyrazole-1-yl]methyl}malononitrile] | ≥ 95 | 100 | ≥ 90 | –
8 | N#CC(C#N)(CCC(F)(F)F)Cn1ccc(C=O)n1 [compound of the present invention (8), [(3-formyl-1H-pyrazole-1-yl)methyl](3,3,3-trifluoropropyl) malononitrile] | – | – | – | pest or weed control at 3.5 ppm (Culex pipiens pallens; Culex pipiens): ≥ 95%; pest or weed control at 500 ppm (Blattella germanica; Blattella germanica): 100%; pest or weed control at 500 ppm (Musca domestica; Musca domestica, 24 h): ≥ 90%
9 | N#Cc1ccn(CC(C#N)(C#N)CCC(F)(F)F)n1 [compound of the present invention (9), [(3-cyano-1H-pyrazole-1-yl)methyl](3,3,3-trifluoropropyl) malononitrile] | ≥ 95 | 100 | – | –
10 | N#CC(C#N)(CCC(F)(F)F)Cn1ccc(-c2ccccc2)n1 [compound of the present invention (10), [(3-phenyl-1H-pyrazole-1-yl)methyl](3,3,3-trifluoropropyl)malononitrile] | ≥ 95 | – | – | –
11 | CC(C)c1nn(CC(C#N)(C#N)CCC(F)(F)F)cc1Br [compound of the present invention (11), [(4-bromo-3-i-propyl-1H-pyrazole-1-yl)methyl] (3,3,3-trifluoropropyl) malononitrile] | ≥ 95 | 100 | ≥ 90 | –
12 | C=CCC(C#N)(C#N)Cn1cc(Br)c(C(C)(C)C)n1 [compound of the present invention (14), allyl [(4-bromo-3-t-butyl-1H-pyrazole-1-yl)methyl]malononitrile] | ≥ 95 | – | – | –
13 | Cc1cc(C)n(CC(C#N)(C#N)CCC(F)(F)F)n1 [compound of the present invention (17)] | ≥ 95 | – | – | –
14 | Cc1cnn(CC(C#N)(C#N)CCC(F)(F)F)c1 [compound of the present invention (18)] | ≥ 95 | 100 | – | –
15 | COC(=O)c1cnn(CC(C#N)(C#N)CCC(F)(F)F)c1 [compound of the present invention (23), [{4-(methoxycarbonyl)-1H-pyrazole-1-yl}methyl](3,3,3-trifluoropropyl) malononitrile] | ≥ 95 | – | – | –
16 | CCOC(=O)c1cn(CC(C#N)(C#N)CCC(F)(F)F)nc1C(F)(F)F [compound of the present invention (25), {[4-ethoxycarbonyl-3-(trifluoromethyl)-pyrazole-1H-yl]methyl}(3,3,3-trifluoropropyl) malononitrile] | ≥ 95 | – | – | –
17 | N#CC(C#N)(CCC(F)(F)F)Cn1cncn1 [compound of the present invention (27), [(1H-1,2,4-triazole-1-yl)methyl](3,3,3-trifluoropropyl) malononitrile] | ≥ 95 | 100 | – | –
18 | CCC(C)(C)c1ncn(CC(C#N)(C#N)CCC(F)(F)F)n1 [compound of the present invention (30), {[3-(1,1-dimethylpropyl)-1H-1,2,4-triazole-1-yl]methyl}(3,3,3-trifluoropropyl) malononitrile] | – | 100 | ≥ 90 | –
19 | C=CCC(C#N)(C#N)Cn1cnc(C(F)(F)C(F)(F)F)n1 [compound of the present invention (35), allyl {[3-(pentafluoroethyl)-1H-1,2,4-triazole 1-yl]methyl}malononitrile] | ≥ 95 | 100 | – | –
20 | N#Cc1cn(CC(C#N)(C#N)CCC(F)(F)F)c2ccccc12 [compound of the present invention (39), [{3-cyano-1H-indole-1-yl}methyl] (3,3,3-trifluoropropyl) malononitrile] | ≥ 95 | – | ≥ 90 | –
21 | N#CC(C#N)(CCC(F)(F)F)Cn1cc(C(=O)C(F)(F)F)c2ccccc21 [compound of the present invention (41), [{3-(trifluoroacetyl)-1H-indole-1-yl}methyl](3,3,3-trifluoropropyl) malononitrile] | – | – | – | pest or weed control at 3.5 ppm (Culex pipiens pallens; Culex pipiens): ≥ 95%
22 | N#CC(C#N)(CCC(F)(F)F)Cn1cc(SC(F)(Cl)Cl)cn1 [compound of the present invention (43), [(4-{(dichlorofluoromethyl)thio}-1H-pyrazole-1-yl)methyl](3,3,3-trifluoropropyl)malononitrile] | – | 100 | – | –
23 | N#CC(C#N)(CCC(F)(F)F)Cn1cc(SC(F)(Cl)Cl)c2ccccc21 [compound of the present invention (44), [(3-{[dichlorofluoromethyl]thio}-1H-indole-1-yl)methyl](3,3,3-trifluoropropyl) malononitrile] | ≥ 95 | – | – | –
24 | N#Cc1cn(CC(C#N)(C#N)CCC(F)(F)F)cc1C(F)(F)F [compound of the present invention (46), [(3-cyano-4-trifluoromethyl-1H-pyrole-1-yl)methyl](3,3,3-trifluoropropyl) malononitrile] | ≥ 95 | – | – | –
25 | CCOC(=O)c1cn(CC(C#N)(C#N)CCC(F)(F)F)cc1C(F)(F)F [compound of the present invention (47), [(3-ethoxycarbonyl-4-trifluoromethyl-1H-pyrole-1-yl)methyl](3,3,3-trifluoropropyl)malononitrile] | ≥ 95 | – | – | –
26 | N#Cc1ccn(CC(C#N)(C#N)CCC(F)(F)F)c1 [compound of the present invention (48), [(3-cyano-1H-pyrole-1-yl)methyl] (3,3,3-trifluoropropyl) malononitrile] | ≥ 95 | – | – | –
